# Measured values from article PMC11083829, “Isolation, Characterization, Genome Annotation, and Evaluation of Hyaluronidase Inhibitory Activity in Secondary Metabolites of Brevibacillus sp. JNUCC 41: A Comprehensive Analysis through Molecular Docking and Molecular Dynamics Simulation” (International Journal of Molecular Sciences, 2024).
# pIC50: −log10 of the molar value.
# Molecular target: T1, hyaluronidase (HAase) (Bos taurus, UniProt Q2YDK3)
# T1 construct: Hyaluronidase was obtained from bovine testes (Sigma-Aldrich, St. Louis, MO, USA); purchased Sigma-Aldrich; host or cells: bovine testes (tissue-derived)
# T1 sequence (Q2YDK3 36-553): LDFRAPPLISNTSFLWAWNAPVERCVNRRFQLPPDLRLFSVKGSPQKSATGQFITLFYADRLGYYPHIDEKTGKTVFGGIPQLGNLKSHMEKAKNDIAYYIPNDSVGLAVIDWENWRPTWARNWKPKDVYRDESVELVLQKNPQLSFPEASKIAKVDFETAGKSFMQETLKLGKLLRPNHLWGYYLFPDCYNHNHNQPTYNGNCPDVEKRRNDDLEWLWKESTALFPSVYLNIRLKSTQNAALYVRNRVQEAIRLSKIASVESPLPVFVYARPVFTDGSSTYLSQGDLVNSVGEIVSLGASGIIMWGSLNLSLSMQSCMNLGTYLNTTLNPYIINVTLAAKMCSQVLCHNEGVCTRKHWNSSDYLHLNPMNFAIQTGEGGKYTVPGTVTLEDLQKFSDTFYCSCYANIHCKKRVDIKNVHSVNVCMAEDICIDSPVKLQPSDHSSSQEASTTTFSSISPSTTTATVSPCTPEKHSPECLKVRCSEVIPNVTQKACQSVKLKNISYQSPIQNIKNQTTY
# Assay: Hyaluronidase inhibitory activity enzymatic assay (HA substrate, DMAB, absorbance 540 nm)
# Type: biochemical
# Settings: hyaluronidase from bovine testes; EGCG positive control
# Text: Luria–Bertani Broth (LB) and Lactobacilli MRS Broth (Becton, Franklin Lakes, NJ, USA) were used for the bacterial culture. Silica gel (Merck, Darmstadt, Germany) and Sephadex LH-20 gel (Sigma-Aldrich, St. Louis, MO, USA) were used for chromatographic separations. Thin-layer chromatography (TLC) plates (Merck, Darmstadt, Germany) were used for analytical purposes. Hyaluronidase was obtained from bovine testes (Sigma-Aldrich, St. Louis, MO, USA). Nuclear magnetic resonance (NMR) spectrums were obtained using JNM-ECX 400 (FT-NMR system, 400 MHz, JEOL Co., Akishima, Japan).
# In the enzymatic assay, 5 μL of hyaluronidase enzyme and 12.5 mM CaCl2 samples at varying concentrations were added to a 96-well plate. The samples were reacted for 20 min and incubated at 37 °C. After the initial incubation, 25 μL of the substrate solution (HA at a concentration of 2.4 mg/mL) was added. The reaction mixture was incubated again at 37 °C for 40 min. Then, 5 μL of 0.4 N NaOH and 5 μL of 0.4 M potassium tetraborate were added to the mixture, followed by incubation at 100 °C for 3 min. After cooling, 150 μL of DMAB solution (p-dimethylaminobenzaldehyde + acetic acid + 10 N HCL) was added to the reaction mixture. The absorbance of the reaction mixture was measured at 540 nm. Epigallocatechin gallate (EGCG) was used as a positive control in this assay.
row,SMILES,pIC50
1,"O=C(O[C@@H]1Cc2c(O)cc(O)cc2O[C@@H]1c1cc(O)c(O)c(O)c1)c1cc(O)c(O)c(O)c1 [EGCG, Epigallocatechin gallate]",3.76
2,"COC(=O)Cc1c[nH]c2ccccc12 [Methyl indole-3-acetate, methyl indole-3-acetate]",3.46
